Reference: patent US20060134102A1, “Lymphotoxin beta receptor agents in combination with chemotherapeutic agents” (Biogen Idec MA Inc., priority 2002, published 2006)
Several values for one entry are separate records, joined by “and”; a condition that tells them apart may be missing. Equal values may be shown once.

Test system: KM-20L2 human colorectal adenocarcinoma
Test: KM-20L2 xenograft model: growth of established KM-20L2 human colorectal tumors in athymic nude mice (tumor volume/weight, % T/C, Fa, Combination Index)
Format: in vivo

## huCBE11: humanized anti-LT-β-R agonist antibody (LTβ receptor-activating mAb), described in WO 02/30986
huCBE11 2 mg/kg, Day 9
  Mean Fraction Affected (Fa): 0.103
  Mean Fraction Affected/Fraction Unaffected (Fa/Fu): 0.115
  Mean Tumor Volume: 100.3 cubic mm
  Mean Tumor Volume Decrease: 11.5 cubic mm
huCBE11 2 mg/kg, Day 13
  Mean Fraction Affected (Fa): 0.057
  Mean Fraction Affected/Fraction Unaffected (Fa/Fu): 0.061
  Mean Tumor Volume: 162.7 cubic mm
  Mean Tumor Volume Decrease: 9.9 cubic mm
huCBE11 2 mg/kg, Day 16
  Mean Fraction Affected (Fa): 0.119
  Mean Fraction Affected/Fraction Unaffected (Fa/Fu): 0.135
  Mean Tumor Volume: 233.5 cubic mm
  Mean Tumor Volume Decrease: 31.5 cubic mm
huCBE11 2 mg/kg, Day 20
  Mean Fraction Affected (Fa): 0.342
  Mean Fraction Affected/Fraction Unaffected (Fa/Fu): 0.521
  Mean Tumor Volume: 263.7 cubic mm
  Mean Tumor Volume Decrease: 137.3 cubic mm
huCBE11 2 mg/kg, Day 23
  Mean Fraction Affected/Fraction Unaffected (Fa/Fu): 0.554
  Mean Tumor Volume: 339.2 cubic mm
  Mean Tumor Volume Decrease: 188.0 cubic mm
huCBE11 2 mg/kg, Day 27
  Mean Fraction Affected (Fa): 0.419
  Mean Fraction Affected/Fraction Unaffected (Fa/Fu): 0.720
  Mean Tumor Volume: 388.7 cubic mm
  Mean Tumor Volume Decrease: 279.9 cubic mm
huCBE11 2 mg/kg, Day 30
  Mean Fraction Affected (Fa): 0.449
  Mean Fraction Affected/Fraction Unaffected (Fa/Fu): 0.813
  Mean Tumor Volume: 450.1 cubic mm
  Mean Tumor Volume Decrease: 366.1 cubic mm
huCBE11 2 mg/kg, Day 34
  Mean Fraction Affected (Fa): 0.505
  Mean Fraction Affected/Fraction Unaffected (Fa/Fu): 1.020
  Mean Tumor Volume: 519.9 cubic mm
  Mean Tumor Volume Decrease: 530.4 cubic mm
huCBE11 2 mg/kg, Day 37
  Mean Fraction Affected (Fa): 0.520
  Mean Fraction Affected/Fraction Unaffected (Fa/Fu): 1.082
  Mean Tumor Volume: 580.1 cubic mm
  Mean Tumor Volume Decrease: 627.9 cubic mm
huCBE11 2 mg/kg, Day 41
  Mean Fraction Affected (Fa): 0.567
  Mean Fraction Affected/Fraction Unaffected (Fa/Fu): 1.310
  Mean Tumor Volume: 623.2 cubic mm
  Mean Tumor Volume Decrease: 816.2 cubic mm
huCBE11 2 mg/kg, Day 43
  Mean Fraction Affected (Fa): 0.588
  Mean Fraction Affected/Fraction Unaffected (Fa/Fu): 1.424
  Mean Tumor Volume: 662.7 cubic mm
  Mean Tumor Volume Decrease: 944.0 cubic mm
huCBE11 4 mg/kg and 2 mg/kg, Days 20-55, separate study
  Tumor growth vs vehicle control: significantly decreased
huCBE11 4 mg/kg, Day 9
  Mean Fraction Affected (Fa): −0.125
  Mean Fraction Affected/Fraction Unaffected (Fa/Fu): −0.111
  Mean Tumor Volume: 125.8 cubic mm
  Mean Tumor Volume Decrease: −14.0 cubic mm
huCBE11 4 mg/kg, Day 13
  Mean Fraction Affected (Fa): −0.048
  Mean Fraction Affected/Fraction Unaffected (Fa/Fu): −0.046
  Mean Tumor Volume: 180.9 cubic mm
  Mean Tumor Volume Decrease: −8.3 cubic mm
huCBE11 4 mg/kg, Day 16
  Mean Fraction Affected/Fraction Unaffected (Fa/Fu): 0.070
  Mean Tumor Volume: 247.6 cubic mm
  Mean Tumor Volume Decrease: 17.4 cubic mm
huCBE11 4 mg/kg, Day 20
  Mean Fraction Affected (Fa): 0.307
  Mean Fraction Affected/Fraction Unaffected (Fa/Fu): 0.442
  Mean Tumor Volume: 278.0 cubic mm
  Mean Tumor Volume Decrease: 123.0 cubic mm
huCBE11 4 mg/kg, Day 23
  Mean Fraction Affected (Fa): 0.347
  Mean Fraction Affected/Fraction Unaffected (Fa/Fu): 0.531
  Mean Tumor Volume: 344.3 cubic mm
  Mean Tumor Volume Decrease: 182.9 cubic mm
huCBE11 4 mg/kg, Day 27
  Mean Fraction Affected (Fa): 0.423
  Mean Fraction Affected/Fraction Unaffected (Fa/Fu): 0.733
  Mean Tumor Volume: 385.8 cubic mm
  Mean Tumor Volume Decrease: 282.8 cubic mm
huCBE11 4 mg/kg, Day 30
  Mean Fraction Affected (Fa): 0.412
  Mean Fraction Affected/Fraction Unaffected (Fa/Fu): 0.700
  Mean Tumor Volume: 480.1 cubic mm
  Mean Tumor Volume Decrease: 336.1 cubic mm
huCBE11 4 mg/kg, Day 34
  Mean Fraction Affected (Fa): 0.468
  Mean Fraction Affected/Fraction Unaffected (Fa/Fu): 0.879
  Mean Tumor Volume: 558.9 cubic mm
  Mean Tumor Volume Decrease: 491.4 cubic mm
huCBE11 4 mg/kg, Day 37
  Mean Fraction Affected (Fa): 0.511
  Mean Fraction Affected/Fraction Unaffected (Fa/Fu): 1.044
  Mean Tumor Volume: 591.1 cubic mm
  Mean Tumor Volume Decrease: 616.9 cubic mm
huCBE11 4 mg/kg, Day 41
  Mean Fraction Affected (Fa): 0.512
  Mean Fraction Affected/Fraction Unaffected (Fa/Fu): 1.050
  Mean Tumor Volume: 702.0 cubic mm
  Mean Tumor Volume Decrease: 737.4 cubic mm
huCBE11 4 mg/kg, Day 43
  Mean Fraction Affected (Fa): 0.518
  Mean Fraction Affected/Fraction Unaffected (Fa/Fu): 1.073
  Mean Tumor Volume: 775.1 cubic mm
  Mean Tumor Volume Decrease: 831.6 cubic mm
huCBE11 20 mg/kg Days 16 through 55, 2 mg/kg Days 16 through 55, 0.2 mg/kg Days 20 through 55, separate study
  Inhibition of tumor growth vs vehicle control: significant inhibition of tumor growth
huCBE11 20 mg/kg alone, Day 9
  Mean Fraction Affected (Fa): 0.053
huCBE11 20 mg/kg alone, Day 13, 20 mg/kg
  Mean Fraction Affected (Fa): 0.087 and 0.086
huCBE11 20 mg/kg alone, Day 16, 20 mg/kg
  Mean Fraction Affected (Fa): 0.263 and 0.264
huCBE11 20 mg/kg alone, Day 20
  Mean Fraction Affected (Fa): 0.435
huCBE11 20 mg/kg alone, Day 23
  Mean Fraction Affected (Fa): 0.504
huCBE11 20 mg/kg alone, Day 27
  Mean Fraction Affected (Fa): 0.576
huCBE11 20 mg/kg alone, Day 30
  Mean Fraction Affected (Fa): 0.539
huCBE11 20 mg/kg alone, Day 34
  Mean Fraction Affected (Fa): 0.543
huCBE11 20 mg/kg alone, Day 37
  Mean Fraction Affected (Fa): 0.525
huCBE11 20 mg/kg alone, Day 41
  Mean Fraction Affected (Fa): 0.538
huCBE11 20 mg/kg, Day 27 (lowest observed)
  % T/C: 42.4%
huCBE11, studies of the Camptosar example
  Activity by NCI criteria (% T/C at or below 42): inactive
huCBE11, studies of the gemcitabine example
  Activity by NCI criteria (% T/C of 42 or less): active
huCBE11 dose groups, throughout both studies (Camptosar example)
  % T/C: > 42%
